The record followed here is ChEMBL document CHEMBL5034014, “Melanocortin 1 Receptor Agonists Based on a Bivalent, Bicyclic Peptide Framework” (J Med Chem, 2021).

pEC50, pIC50, pKi: −log10 of the molar value.

The target of assay [1] is T1, Melanocortin receptor 3 (Homo sapiens, UniProt P41968). Description: Displacement of [125I]-NDP-alpha-MSH from human MC3R expressed in HEK2936E cell membrane measured after 16-23 hrs by 1450 microbeta trilux scintillation proximity assay. Format: cell membranes.
T1 sequence (P41968 whole entry): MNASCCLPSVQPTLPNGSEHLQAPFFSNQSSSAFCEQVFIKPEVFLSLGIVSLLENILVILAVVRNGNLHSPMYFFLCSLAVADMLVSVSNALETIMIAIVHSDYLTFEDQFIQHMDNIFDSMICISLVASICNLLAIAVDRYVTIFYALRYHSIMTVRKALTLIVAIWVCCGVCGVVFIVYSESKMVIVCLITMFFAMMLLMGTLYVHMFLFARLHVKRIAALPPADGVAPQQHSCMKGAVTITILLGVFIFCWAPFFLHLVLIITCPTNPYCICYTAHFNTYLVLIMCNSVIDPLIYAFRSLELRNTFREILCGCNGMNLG
Assay [2] is filed under the species Homo sapiens. The assay is described as follows: Selectivity index, […] for displacement of [125I]-NDP-alpha-MSH from human MC1R […] for displacement of [125I]-NDP-alpha-MSH from human MC4R by competitive radioligand binding assay.
In assay [3] the target is T2, Melanocortin receptor 4 (Homo sapiens, UniProt P32245). Description: Agonist activity at human melanocortin receptor 4 expressed in human T-REx-293 cells using low doxycycline assessed as stimulation of intracellular cAMP accumulation incubated for 45 mins by LANCE cAMP assay. Format: functional, cell-based. A general note: Cyclic AMP is a second messenger, typically raised through Gs and lowered through Gi signalling.
T2 sequence (P32245 whole entry): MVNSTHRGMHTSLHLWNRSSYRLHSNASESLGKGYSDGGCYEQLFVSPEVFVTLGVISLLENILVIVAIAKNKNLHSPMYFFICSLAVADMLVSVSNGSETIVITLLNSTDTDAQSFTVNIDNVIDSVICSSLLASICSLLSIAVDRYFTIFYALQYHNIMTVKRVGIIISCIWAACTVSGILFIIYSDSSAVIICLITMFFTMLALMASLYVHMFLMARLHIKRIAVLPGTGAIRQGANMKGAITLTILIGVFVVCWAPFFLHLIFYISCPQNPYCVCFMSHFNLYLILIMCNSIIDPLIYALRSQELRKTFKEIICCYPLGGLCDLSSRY

The target of assay [4] is Melanocortin receptor 5 (Homo sapiens, UniProt P33032). The assay is described as follows: Displacement of [125I]-NDP-alpha-MSH from human MC5R expressed in HEK2936E cell membrane measured after 16-23 hrs by 1450 microbeta trilux scintillation proximity assay. Format: cell membranes. For orientation: Displacement assays read how much labelled ligand stays bound in the presence of the test substance.
Melanocortin receptor 5, sequence (P33032 whole entry): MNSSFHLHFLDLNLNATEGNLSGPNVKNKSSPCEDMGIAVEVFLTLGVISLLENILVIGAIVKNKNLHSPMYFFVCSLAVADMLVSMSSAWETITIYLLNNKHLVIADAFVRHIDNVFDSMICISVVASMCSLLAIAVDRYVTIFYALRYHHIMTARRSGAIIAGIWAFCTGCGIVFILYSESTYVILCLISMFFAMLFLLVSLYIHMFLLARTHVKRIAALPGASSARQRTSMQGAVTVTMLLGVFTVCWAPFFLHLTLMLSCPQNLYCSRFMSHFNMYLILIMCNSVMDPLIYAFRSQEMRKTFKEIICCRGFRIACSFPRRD

Assay [5] addresses T1, Melanocortin receptor 3. Description: Agonist activity at human melanocortin receptor 3 expressed in human T-REx-293 cells assessed as stimulation of intracellular cAMP accumulation incubated for 45 mins by LANCE cAMP assay. Type of assay: functional, cell-based.
The species entered for assay [6] is Homo sapiens. Description: Selectivity index, […] for displacement of [125I]-NDP-alpha-MSH from human MC1R […] for displacement of [125I]-NDP-alpha-MSH from human MC3R by competitive radioligand binding assay.
Assay [7] addresses T2, Melanocortin receptor 4. Description: Agonist activity at human melanocortin receptor 4 expressed in human T-REx-293 cells using high doxycycline assessed as stimulation of intracellular cAMP accumulation incubated for 45 mins by LANCE cAMP assay. Format: functional.
For assay [8], the target named is T3, Melanocyte-stimulating hormone receptor (Homo sapiens, UniProt Q01726). The assay is described as follows: Displacement of [125I]-NDP-alpha-MSH from human MC1R expressed in HEK2936E cell membrane measured after 16-23 hrs by 1450 microbeta trilux scintillation proximity assay. Format: cell membranes.
T3 sequence (Q01726 whole entry): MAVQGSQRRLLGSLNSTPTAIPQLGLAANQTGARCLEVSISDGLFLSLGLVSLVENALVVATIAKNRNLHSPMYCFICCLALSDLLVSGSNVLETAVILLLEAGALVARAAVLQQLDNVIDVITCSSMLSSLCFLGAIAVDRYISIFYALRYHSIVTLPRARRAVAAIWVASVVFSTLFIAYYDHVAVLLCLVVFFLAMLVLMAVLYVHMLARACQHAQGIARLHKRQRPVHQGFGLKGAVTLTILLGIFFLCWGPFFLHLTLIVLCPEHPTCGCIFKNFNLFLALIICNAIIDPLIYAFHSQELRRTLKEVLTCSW
Assay [9] addresses T3, Melanocyte-stimulating hormone receptor. Description: Agonist activity at human melanocortin receptor 1 expressed in human T-Rex-293 cells assessed as stimulation of intracellular cAMP accumulation incubated for 45 mins by LANCE cAMP assay. Type of assay: functional, cell-based.
The target of assay [10] is T2, Melanocortin receptor 4. Description: Displacement of [125I]-NDP-alpha-MSH from human MC4R expressed in HEK2936E cell membrane measured after 16-23 hrs by 1450 microbeta trilux scintillation proximity assay. Type of assay: cell membranes.
The species named for assay [11] is Homo sapiens. The assay is described as follows: Selectivity index, […] for displacement of [125I]-NDP-alpha-MSH from human MC1R […] for displacement of [125I]-NDP-alpha-MSH from human MC5R by competitive radioligand binding assay.

For the compound `CC[C@H](C)[C@@H]1NC(=O)[C@@H]2CCCN2C(=O)[C@H](Cc2c[nH]c3ccccc23)NC(=O)[C@H](CCCNC(=N)N)N(C)C(=O)[C@@H](Cc2ccccc2)NC(=O)[C@H](Cc2c[nH]cn2)NC(=O)[C@H]([C@@H](C)O)NC(=O)[C@@H]2CSSC[C@H](NC1=O)C(=O)N[C@@H](Cc1c[nH]cn1)C(=O)N[C@H](Cc1ccccc1)C(=O)N(C)[C@@H](CCCNC(=N)N)C(=O)N(C)[C@@H](Cc1c[nH]c3ccccc13)C(=O)N[C@@H](CCCNC(=N)N)C(=O)N2`, the values for the pKi in [1], in assay [8] and in assay [10] were 7.29, 10.16 and 7.52, respectively. Further, the Ratio in [2] was 30; in assay [6] it was 30; in [11], 3000. Also, the pEC50 (in general, −log10 of the EC50, conventionally taken in molar units) in [3] was 7.58; in [5], 8.91; in assay [7], 9.01; in [9], over 10.30. Also, the pIC50 (as a rule, −log10 of the IC50, conventionally taken in molar units) in assay [4] was 6.78.
